Experimental data reported in patent publication US8258295B2, “Triazine derivatives, compositions containing such derivatives, and methods of treatment of cancer and autoimmune diseases using such derivatives” (Prometic Biosciences Inc., priority 2007, dated 2012).
pIC50: −log10 of the molar value. Read-outs that look alike come from different tables or passages of the source.

Assays:
[1] = system: PC-3 human prostate carcinoma cell; test: MTT cytotoxicity on PC-3; format: cell-based
Protocol: (§1) This assay was performed to determine the effect of compounds of the present invention on cell cytotoxicity. Cells were incubated in presence or absence of compounds in their respective conditioned media. After 24 hr or 72 hr incubation, 50 μl of 3-(4,5-dimethyl-2-thiazyl)-2,5-diphenyl-2H-tetrazolium bromide (MTT; 2 mg/ml) was added and further incubated for 4 hr. The supernatant was discarded and 100 μl of dimethylsulfoxide (DMSO) was added. Absorbance was read at 570 nm with a TecanSunrise ELISA plate reader. The control group consisted of cells without compounds and is referred to as 100% of viable cells. IC50 was determined using Prism software.
(§2) All compounds have weak effect on cell cytotoxicity. The predictive utility of cell based cytotoxicity assays to assess the potential in vivo anticancer activity of compounds with selected cancer cell lines is well established in the art and the use of whole cells, instead of isolated protein receptors or enzymes, provides a more reliable determination of activity. See, for example, Paull et al. (J. Nat'l Cancer Inst. 81:1088-1092, 1989); Monks et al. (J. Nat'l Cancer Inst. 83:757-766, 1991); Bandes et al. (J. Nat'l Cancer Inst. 86:770-775, 1994); and Kamate et al. (Int'l J. Cancer 100:571-579, 2002).

TNFα = TNFα (Homo sapiens, UniProt P01375); test: TNFα-induced apoptosis in WEHI-13VAR cell line; format: cell-based; conditions: for inhibition at 10 µM: 1 × 10^−5 M; for inhibition at 20 µM: 2 × 10^−5 M; for inhibition at 5 µM: 5 × 10^−6 M; for inhibition at 40 µM: 4 × 10^−5 M
Protocol: Effect of compounds on TNFα-induced apoptosis was measured by a standard biological assay using WEHI-13VAR cells. These cells undergo apoptosis when they are incubated in the presence of TNFα and actinomycin D. 2×10^4 WEHI-13VAR cells were incubated in RPMI supplemented with 1% sodium pyruvate and 10% FBS, overnight at 37° C. for cell adherence. The cells were then cultured in the presence of 1 μg/ml of actimomycin D ([…]) and 0.04 nM TNFα with or without compounds at 37° C. After 16 hr to 24 hr, 50 μl of a solution of 2 mg/ml of MIT was added to each well and the plate was then incubated for 4 hr at 37° C. Only viable cells metabolize MTT to form formazan salt, which is detectable by the measurement of absorbance at 570 nm. After the incubation, the plate was inverted to remove medium and dead cells. 150 μDMSO was added to each well to stop the reaction and solubilize the formazan salt. Optical density was read on a Bio-Tek EL 800 UV microplate reader. A decrease in the optical density is direct evidence of cell apoptosis induced by TNFα. Compounds were also compared to the activity of an anti-TNFα neutralizing antibody.

[2] = system: oxazolone-induced delayed-type hypersensitivity (DTH); test: Oxazolone-induced delayed-type hypersensitivity (DTH) in mice; format: in vivo
Protocol: Compounds were tested for their ability to treat oxazolone-induced delayed-type hypersensitivity (DTH) in mice. […] On day 0, day 1, and day 2, mice were treated by intravenous (IV) or oral (PO) administrations of the vehicle (control) or methotrexate (MTX; positive control/IV) or hydrocortisone (positive control/PO) or the compound at concentration lower than or equal to 50 mg/kg or as specified. Mice were challenged with an application of 50 μl of oxazolone on the surface of the right ear (first challenge, day 3; second challenge, day 10). Ear thickness was measured on day 4 to day 7, and on day 11 to 14. Redness and crust formation was also observed. Mice were sacrificed on day 14. TDTH (CD4) cells play an important role in regulating the intensity of the DTH response. Compounds may exert an inhibitory influence on the DTH response through its inhibition of T-cell activation and DNA, RNA, and/or protein synthesis.

[3] = system: P815 murine mastocytoma cell; test: MTT cytotoxicity on P815; format: cell-based; conditions: Mus musculus
Protocol: as §1, §2

[4] = system: NHDF (normal human dermal fibroblast); test: MTT cytotoxicity on NHDF; format: cell-based
Protocol: as §1, §2

[5] = system: HUVEC (human umbilical vein endothelial cell); test: MTT cytotoxicity on HUVEC; format: cell-based
Protocol: as §1, §2

[6] = system: adjuvant-induced arthritis (AIA); test: Freund's adjuvant-induced arthritis (AIA) in Lewis rats; format: in vivo; conditions: female Lewis rats, oral administration; FIG. 18
Protocol: AIA was induced in female Lewis rats by the injection of lyophilized Mycobacterium butyricum suspended in mineral oil into the footpad. The development of arthritis was monitored over a 3-week period post-adjuvant injection. Inflammation peaks at day 3 following the adjuvant administration. Immune activation appears around day 10 to day 16. Compounds were orally administered from day −3 to day 21. Body weight was recorded. The arthritis index, which is a measure of inflammation (edema), redness, and stiffness of the articulations, was used to monitor the development of the disease. The degree of arthritis was determined by measuring two perpendicular diameters of the ankles in the mediolateral and dorsoventral planes using a caliper. Joint circumference in millimeters is then calculated using a geometric formula.

[7] = system: LPS-induced inflammation in the rat air-pouch model; test: LPS-induced inflammation in rat air-pouch model; format: in vivo, rats; conditions: IV, pouch exudate
Description: LPS-induced inflammation in the rat air-pouch model is believed to mimic the pathological process occurring in joint diseases such as arthritis. This is because the connective tissues formed along the air pouch are similar to those found in chronic joint diseases. LPS-induced inflammation and chronic joint diseases share other features, including markedly elevated PGE2, neutrophil infiltration, cytokine formation, and tissue damage.
An air cavity was produced at day −6 by subcutaneous injection of 20 ml of sterile air into the intrascapular area of the back of male Lewis rats (175 to 200 g). An additional 10 ml of air was injected into the cavity at day −3 to keep the space open. At day 0, compounds were administered intravenously and one hour later lipopolysaccharide (LPS: 2.5 ml of 2 μg/ml in PBS) was injected into the pouch to produce an inflammatory reaction. […] The pouch fluid was collected. The volume of exudates was measured and the number of leukocytes present in the exudates was determined with a Coulter counter. The differential count was determined by Wright-Giemsa staining. PGE2, LTB4, MCP, and TNFα were determined in the pouch exudates by specific ELISAs.

[8] = 24 hr culture, read-out: IC50 of 24-hour culture PC-3
[9] = 72 hr culture, read-out: IC50 of 72-hour culture PC-3
[10] = 24 hr culture, read-out: IC50 of 24-hour culture P815
[11] = 72 hr culture, read-out: IC50 of 72-hour culture P815

Chain of TNFα (P01375 77-233 limits assumed, species assumed): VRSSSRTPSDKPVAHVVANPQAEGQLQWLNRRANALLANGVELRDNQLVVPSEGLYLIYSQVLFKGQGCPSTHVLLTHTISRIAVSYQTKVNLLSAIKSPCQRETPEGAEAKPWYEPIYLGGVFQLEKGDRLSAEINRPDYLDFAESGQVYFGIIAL

inhibition at 10 µM (TNFα) [%] | inhibition at 20 µM (TNFα) [%] | inhibition at 5 µM (TNFα) [%] | inhibition at 40 µM (TNFα) [%] | SMILES | pIC50 [1, 8] | pIC50 [1, 9] | pIC50 [3, 10] | pIC50 [3, 11] | other results
52 | 89.7 | 20.4 |  | CN(C)S(=O)(=O)c1ccc(CCNc2nc(NCCCCCN)nc(Nc3cccc(F)c3)n2)cc1 [Compound III] | 4.52 | 4.56 | 4.87 | 5.26 | inflammation (ear thickness) after DTH ([2]; oral 50 mg/kg, first challenge of oxazolone): significant reduction of the inflammation; inflammation (ear thickness) after DTH ([2]; oral 50 mg/kg, second challenge of oxazolone): significant reduction of the inflammation
13.1 | 31.6 | 3.7 | 47.2 | NCCCCCNc1nc(NCCc2ccc(N)cc2)nc(Nc2ccc(F)cc2)n1 [Compound IV] | 4.25 | 4.28 | 4.48 |  | pIC50 ([4]; 24 hr culture, read-out: IC50 of 24-hour culture NHDF): 4.09; pIC50 ([4]; 72 hr culture, read-out: IC50 of 72-hour culture NHDF): 4.37; inflammation (ear thickness) after DTH ([2]; oral 50 mg/kg, FIG. 15): significant reduction of the inflammation; pIC50 ([5]; 24 hr culture, read-out: IC50 of 24-hour culture HUVEC): 4.29; pIC50 ([5]; 72 hr culture, read-out: IC50 of 72-hour culture HUVEC): < 4.00
29.8 | 46.7 | 13.2 | 65.5 | NCCCCNc1nc(NCCc2ccc(S(N)(=O)=O)cc2)nc(Nc2cccc(F)c2)n1 [Compound IX] |  |  |  |  | 
35.6 | 48.1 | 17 | 55.6 | NCCCCCNc1nc(Nc2ccc(S(N)(=O)=O)cc2)nc(Nc2cccc(F)c2)n1 [Compound VIII] | 4.51 | 5.28 | 4.96 | 5.54 | 
65.8 | 99.9 | 30 | 118 | NCCCCCNc1nc(NCCc2ccc(S(N)(=O)=O)cc2)nc(Nc2ccc(F)cc2)n1 [Compound VII] | 4.75 | 4.85 | 4.90 | 5.40 | 
54.8 | 74.1 | 28.2 | 89.5 | NCCCCCNc1nc(NCCc2ccc(C(N)=O)cc2)nc(Nc2cccc(F)c2)n1 [Compound VI] |  |  |  |  | 
14.6 | 23.7 | 9.9 | 35 | NCCCCCNc1nc(NCC(O)c2ccc(O)cc2)nc(Nc2ccc(F)cc2)n1 (stereo not shown) [Compound XI] |  |  |  |  | inflammation (ear thickness) after DTH ([2]; IV 25 mg/kg, first challenge of oxazolone): significant reduction of the inflammation
44.4 | 79.9 | 19.4 | 53.9 | CN(C)S(=O)(=O)c1ccc(CCNc2nc(NCCCCCN)nc(Nc3ccc(F)cc3)n2)cc1 [Compound X] |  |  |  |  | inflammation (ear thickness) after DTH ([2]; IV 5 mg/kg, first challenge of oxazolone): significant reduction of the inflammation
 |  |  |  | NCCCCCNc1nc(Nc2cccc(F)c2)nc(-c2cccc(F)c2)n1 [XII] |  | 5.05 |  | 4.66 | 
 |  |  |  | COc1ccc2c(c1)c(CC(=O)O)c(C)n2C(=O)c1ccc(Cl)cc1 [indomethacin, reference compound] |  |  |  |  | severity of arthritis (inflammatory index) [6]: significant reduction in the severity of arthritis; PGE2 production induced by LPS ([7]; twelve hours after induction, FIG. 21B): significant inhibition; TNFα production induced by LPS ([7]; twelve hours post-LPS induction, FIG. 21A): weak inhibition; TNFα production induced by LPS ([7]; two hours after induction, FIG. 20A): increase the concentration of TNFα; PGE2 production induced by LPS ([7]; two hours after induction, FIG. 20B): significant inhibition; LTB4 production induced by LPS ([7]; two hours after induction, FIG. 20C): did not affect the production of LTB4; MCP-1 production induced by LPS ([7]; two hours after induction, FIG. 20D): significant increase
